# Measured values from patent publication US10857155B2, “Compounds targeting proteins, compositions, methods, and uses thereof” (BioTheryX, Inc., priority 2017, dated 2020).
# How the values were obtained:
# Format in all cases: cell-based
# H1048 cells = test: Cell viability assay (CellTiter-Glo), H1048 cells; details: Homo sapiens, NCI-H1048, 72 h, 3 days; for viability at 1 µM: H1048, 1 μM; for viability at 10 µM: H1048, 10 μM
# Experimental: (§1) Molm-13 cells were cultivated in RPMI-1640 (10% FBS/1% pen-strep) and were plated in white walled 96-well plates at 20,000 cells/well. H1048 cells were cultured in DMEM:F12 media supplemented with 5% fetal bovine serum, insulin, transferrin, sodium selenite, hydrocortisone, estradiol, penicillin and streptomycin, and were plated in white walled 96-well plates at 20,000 cells/well.
# (§2) Cells were treated with compound at the indicated concentration or DMSO (control) and the cultures were incubated for 3 days at 37° C. and 5% CO2. Following the incubation period, 100 μL of CellTiterGlow (CTG) reagent (CellTiter-Glo® Luminescent Cell Viability Assay, Promega (Madison, Wis.)) was added to each well. Following a 10 min incubation with shaking, luminescence was measured using a Victor Wallac Luminometer.
# GSPT1 = biological target: T1, GSPT1 (Homo sapiens, UniProt P15170); test: Western blot analysis of GSPT1 protein levels in Jurkat cells; details: DMSO = 100.00; for GSPT1 protein level (% of DMSO control) at 0.1 µM: 100 nM compound; for GSPT1 protein level (% of DMSO control) at 1 µM: 1 uM compound
# T1 construct: Whole cell extract was prepared with RIPA buffer according to manufacturer's protocol; endogenous in cells; host or cells: Jurkat cells
# Experimental: FIG. 1 represents the activity against CK1α, ikaros, and GPST1 in Jurkat cells, plated in 96 well plates. Cells were pretreated with compounds for 4 h and then lysed and protein levels measure via Western blots. The negative control wells were treated with DMSO. Cells were treated with the indicated compound at the indicated concentration. Compound activity is measured as a decrease in GSPT1 protein levels.
# Western Blot Protocol: Cell lines were grown in RPMI 1640 supplemented with streptomycin, penicillin and 10% fetal bovine serum.
# Jurkat cells were cultured at approximately 10^6 cells per mL, DMSO or the indicated compound was added to the cells and allowed to incubate for 6-8 h. Whole cell extract was prepared with RIPA buffer according to manufacturer's protocol (Pierce (Dallas, Tex.)). Briefly, ˜2×10^6 cells were washed once in PBS, the cell pellet was resuspended in RIPA buffer and allowed to incubate for 15 min on ice. Cell debris was removed by centrifugation and the cleared whole cell lysate was transferred to a new tube for further analysis.
# For western blot analysis, whole cell extracts were separated on 4-12% SDS-polyacrylamide gels, transferred to nitrocellulose and probed with the indicated primary antibodies. Membranes were subsequently washed and probed with the appropriate horseradish peroxidase (HRP)-conjugated secondary antibody. Membranes were subsequently washed and probed with the appropriate IRDye secondary antibodies (LI-COR). The signal was detected using the Odyssey Imaging System (LI-COR).
# IL-2 = IL-2 in PBMCs on anti-human CD3 (OKT3) coated plates, Mesoscale analysis; details: PBMC, 24 h, 0.1 μM, relative to DMSO control, read-out: Fold Change IL-2
# Experimental: For the IL-2 analysis, 96 well plates were precoated with 1 μg/mL anti-human CD3 antibody (OKT3, eBioscience Inc., San Diego, Calif.). After washing with PBS, compounds were added (50 μL/well) followed by PBMCs diluted at 3-4 million cells/mL (150 μL/well). Plates were incubated for 24 h and the supernatants collected for Mesoscale IL-2 analysis.
# (§3) Compound activity is measured as fold difference from the DMSO control. Compounds 1, 2, and 3 each reduced expression of IL-1-b in LPS-stimulated PBMCs by over 80% at 1 uM, relative to a just under 80% reduction with pomalidomide at 10 μM (FIG. 2).
# IL-1β = test: IL-1 beta in LPS-induced PBMCs / CD14+ monocytes, Meso Scale assay; details: 0.1 μM
# Experimental: (§4) FIG. 2 represents the activity against IL-1-beta in CD14 monocytes, plated in 96 well plates and pretreated with Compounds 1, 2, or 3, or pomalidomide, for 1 h and then induced with 100 ng/mL LPS for 18-24 h. Cytokines were measured according to MesoScale protocol. Negative control wells were treated with DMSO. Compound activity was measured as a percentage of LPS-induced activity.
# (§5) Either frozen primary blood mononuclear cells (PBMCs) or frozen CD14+ mobilized peripheral blood monocytes were purchased from AllCells (PB003F, Normal Peripheral Blood MNC (Alameda, Calif.)). Cells were quick thawed, washed 1-time with RPMI-1640 (10% FBS/1% Pen-Strep) and plated in 96 well plates at 200,000 cells per well. Cells were pretreated with DMSO only, pomalidomide or the indicated compounds for 1 h and then induced with 100 ng/mL lipopolysaccharide (LPS) for 18-24 h. The supernatant was analyzed for IL-1 beta, IL-6, and TNF-alpha, using Meso Scale assay according to manufacturer's protocol. The negative control wells were treated with DMSO.
# as §3
# TNF-α = test: TNF-alpha in LPS-induced PBMCs / CD14+ monocytes, Meso Scale assay; details: 0.1 μM
# Experimental: as §4, with “FIG. 4” for “FIG. 2”, “against TNF-alpha” for “against IL-1-beta”, “in CD14,” for “in CD14”, “protocol. The negative” for “protocol. Negative”, “DMSO. Cells were treated with compound (at the indicated concentrations) or 10 μM pomalidomide.” for “DMSO.”
# as §5, §3
# IL-6 = IL-6 in LPS-induced PBMCs / CD14+ monocytes, Meso Scale assay; details: 0.1 μM
# Experimental: as §4, with “FIG. 3” for “FIG. 2”, “against IL-6” for “against IL-1-beta”, “in CD14,” for “in CD14”, “DMSO. Cells were treated with compound (at the indicated concentrations) or 10 μM pomalidomide.” for “DMSO.”
# as §5, §3
# Molm-13 cells = test: Cell viability assay (CellTiter-Glo), Molm-13 cells; details: Homo sapiens, 72 h, 3 days; for viability at 10 µM: MOLM-13, 10 μM; for viability at 1 µM: MOLM-13, 1 μM
# Experimental: FIG. 5 represents antiproliferative activity in Molm-13 cells. The cells were incubated with Compound 1, 2, or 3 (at the indicated concentration), DMSO, or pomalidomide. Compound activity was measured based on the signal from remaining viable cells.
# as §1, §2
# T1 sequence (P15170 whole entry): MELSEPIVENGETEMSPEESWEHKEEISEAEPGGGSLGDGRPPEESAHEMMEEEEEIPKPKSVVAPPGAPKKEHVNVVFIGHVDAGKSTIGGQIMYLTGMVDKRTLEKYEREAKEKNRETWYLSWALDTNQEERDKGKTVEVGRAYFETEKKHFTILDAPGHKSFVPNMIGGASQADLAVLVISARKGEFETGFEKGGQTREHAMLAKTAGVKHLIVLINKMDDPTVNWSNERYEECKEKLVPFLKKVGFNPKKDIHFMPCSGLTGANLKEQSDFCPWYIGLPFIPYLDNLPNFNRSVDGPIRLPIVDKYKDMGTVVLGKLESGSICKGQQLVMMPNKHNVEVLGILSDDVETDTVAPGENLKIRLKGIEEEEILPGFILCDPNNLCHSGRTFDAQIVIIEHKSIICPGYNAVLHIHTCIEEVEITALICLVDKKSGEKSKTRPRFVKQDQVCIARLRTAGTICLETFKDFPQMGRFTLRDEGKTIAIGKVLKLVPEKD
Compound,GSPT1 protein level (% of DMSO control) at 0.1 µM (GSPT1),GSPT1 protein level (% of DMSO control) at 1 µM (GSPT1),viability at 1 µM (H1048 cells),viability at 10 µM (H1048 cells),fold induction at 0.1 µM (IL-2),inhibition at 0.1 µM (IL-1β),inhibition at 0.1 µM (TNF-α),inhibition at 0.1 µM (IL-6),viability at 10 µM (Molm-13 cells),viability at 1 µM (Molm-13 cells)
"Cc1ccc(N(C)C(=O)NCc2ccc3c(c2)CN([C@H]2CCCC(=O)NC2=O)C3=O)cc1Cl [Compound 21, (S)-1-(3-chloro-4-methylphenyl)-3-((2-(2,7-dioxoazepan-3-yl)-1-oxoisoindolin-5-yl)methyl)-1-methylurea]",126%,134%,95.5%,45.3%,0.9,27%,20%,18%,25%,–
"Cc1ccc(NC(=O)NCc2cc3c(cc2F)C(=O)N([C@H]2CCCC(=O)NC2=O)C3)cc1Cl [Compound 22, (S)-1-(3-chloro-4-methylphenyl)-3-((2-(2,7-dioxoazepan-3-yl)-6-fluoro-1-oxoisoindolin-5-yl)methyl)urea]",22.1%,5.56%,11.5%,4.04%,2,82%,74%,58%,–,2.45%
"Cc1ccc(NC(=O)NCCc2cccc3c2CN([C@H]2CCCC(=O)NC2=O)C3=O)cc1Cl [Compound 23, (S)-1-(3-chloro-4-methylphenyl)-3-(2-(2-(2,7-dioxoazepan-3-yl)-1-oxoisoindolin-4-yl)ethyl)urea]",147%,105%,–,25.1%,0.8,21%,25%,0%,96%,–
"Cc1ccc(NC(=O)NCCc2ccc3c(c2)CN([C@H]2CCCC(=O)NC2=O)C3=O)cc1Cl [Compound 24, (S)-1-(3-chloro-4-methylphenyl)-3-(2-(2-(2,7-dioxoazepan-3-yl)-1-oxoisoindolin-5-yl)ethyl)urea]",122%,126%,–,2.81%,0.9,26%,42%,0%,98%,–

# Further lines, with some results ahead:
GSPT1 protein level (% of DMSO control) at 0.1 µM (GSPT1),GSPT1 protein level (% of DMSO control) at 1 µM (GSPT1),Compound,viability at 1 µM (H1048 cells),viability at 10 µM (H1048 cells),fold induction at 0.1 µM (IL-2),inhibition at 0.1 µM (IL-1β),inhibition at 0.1 µM (TNF-α),inhibition at 0.1 µM (IL-6),viability at 10 µM (Molm-13 cells),viability at 1 µM (Molm-13 cells)
98.1%,63.5%,"O=C1CCC[C@H](N2Cc3cc(CNC(=O)C(F)(F)c4ccc(F)cc4)ccc3C2=O)C(=O)N1 [Compound 25, (S)—N-((2-(2,7-dioxoazepan-3-yl)-1-oxoisoindolin-5-yl)methyl)-2,2-difluoro-2-(4-fluorophenyl)acetamide]",88.1%,26.6%,1.4,38%,36%,12%,96%,–
61.6%,20.8%,"Cc1ccc(NC(=S)NCc2ccc3c(c2)CN([C@H]2CCCC(=O)NC2=O)C3=O)cc1Cl [Compound 26, (S)-1-(3-chloro-4-methylphenyl)-3-((2-(2,7-dioxoazepan-3-yl)-1-oxoisoindolin-5-yl)methyl)thiourea]",46.4%,4.54%,0.8,1%,3%,0%,–,79%
51.4%,23.8%,"Cc1ccc(NC(=O)NCc2ccc3c(c2)C(=O)N([C@H]2CCCC(=O)NC2=O)C3=O)cc1Cl [Compound 27, (S)-1-(3-chloro-4-methylphenyl)-3-((2-(2,7-dioxoazepan-3-yl)-1,3-dioxoisoindolin-5-yl)methyl)urea]",101%,28.2%,1.1,9%,19%,0%,89%,–
